The text below walks through data of PMC7472354, “Enhanced Antimicrobial Activity of N-Terminal Derivatives of a Novel Brevinin-1 Peptide from The Skin Secretion of Odorrana schmackeri” (Toxins, 2020).

One may read the MIC as the smallest concentration in the dilution series that meets the test's criterion for growth inhibition. Read a high MIC as a less susceptible organism.

The subject of series [1] is Galleria mellonella larvae. Kind of series: Toxicity to uninfected Galleria mellonella larvae. The class given is in vivo. Conditions: uninfected G. mellonella larvae injected with drug; n = 30 per group; vancomycin 20 mg/kg. Here is the method:
The in vivo study of antimicrobial activity of the peptides was evaluated using the larvae of Galleria mellonella, which was described in the previous study with minor modifications. The larvae of Galleria mellonella (250 ± 25 mg; Livefood UK Ltd., Rooks Bridge, UK) were selected. The MRSA culture was prepared the same way as the antimicrobial activity assay. Then, MRSA cells were collected and washed, and further diluted to 10^8 CFU/mL in the saline. Ten µL of MRSA suspension was injected to the larvae and placed in a petri dish. After 2 h, the MRSA infected larvae were administrated with 10 µL of peptides (25 mg/kg, 50 mg/kg) by injection. Saline and vancomycin (20 mg/kg) (Sigma-Aldrich, UK) were used as the negative control and positive control, respectively. Each sample group contained 10 larvae, and the experiment was repeated three times (30 larvae for each group in total). The survival curves were achieved using Prism (Version 6.0; GraphPad Software Inc., San Diego, CA, USA) and the log-rank test was employed to analyze the significance between the different treatments and the controls. * (p < 0.05), ** (p < 0.01) and *** (p < 0.001) represent statistical significance.
Figure A9 Larvae without any MRSA infection were injected with peptides and vancomycin respectively to access the cytotoxicity of the drugs to larvae bodies. […] Effect of treatment of G. mellonella larvae (n = 30 for each group) without any infection and only treated with 5 µL vancomycin (20 mg/kg), OSd, OSe and OSf.

Series [2] has as its system E. coli (NCTC 10418) biofilm. Format: cell-based, Escherichia coli. To be noted: for MBIC50 / MBIC90: NCTC 10418, 24 h. Here is the method:
(§1) The anti-biofilm effects of all synthetic peptides were evaluated, which was described in our previous study. The organisms, including S. aureus (NCTC 10788), E. coli (NCTC 10418), MRSA (ATCC 12493), E. faecalis (NCTC 12697) and P. aeruginosa (ATCC 27853), were investigated in this study. Gram-positive bacteria were cultured in the TSB broth and Gram-negative bacteria were cultured in the LB broth. The anti-biofilm effects were determined based on the MBIC and MBEC of all the peptides. For the determination of MBIC, 5 × 10^5 CFU/mL bacterial cultures were incubated with the peptides concentrations (ranging from 1 µM to 512 µM) for 24 h. The sterilised medium and bacterial suspension without any treatment were used as the negative controls and positive controls, respectively. After incubation, wells were rinsed, fixed, stained, washed and dissolved with phosphate buffer saline (PBS), methanol (90%, v/v), crystal violet (0.1%, w/v), sterile deionised water and acetic acid (30%, v/v), respectively. The absorbance of dissolved stain was measured at a 595 nm using a Synergy HT plate reader (Biotech, Minneapolis, MN, USA).
(§2) For the MBEC assay, the peptide concentrations were prepared as above. The bacteria were cultured in the 96 well plate for 24–48 h, which allowed the formation of mature biofilm in the plate. Then, the bacterial culture was removed from the plate. The biofilm was further washed to remove the planktonic bacteria using PBS. Then, the fresh broth that contained different peptide concentrations was added in the plate for incubation of 24 h at 37 °C. After incubation, the plate was stained by crystal violet as mentioned above. The definition of MBIC can be given when compared to the negative control group (≥90%, MBIC90; ≥50%, MBIC50). The definition of the MBEC can be given when compared to the negative control group (≥90%, MBEC90; ≥50%, MBEC50).

A further series has as its system MRSA. Format: cell-based, Staphylococcus aureus. Conditions: 24 h. The procedure:
(§3) The minimal inhibitory concentrations (MICs) and minimum bactericidal concentrations (MBCs) were evaluated to determine the antimicrobial activity of synthetic peptides. The microorganisms employed in the study are two kinds of Gram-negative bacteria, Escherichia coli (NCTC 10418) and Pseudomonas aeruginosa (ATCC 27853), three kinds of Gram-positive bacteria, Staphylococcus aureus (NCTC 10788), Methicillin-resistant Staphylococcus aureus (MRSA, ATCC 12493) and Enterococcus faecalis (NCTC 12697) and a yeast, Candida albicans (NCPF 1467), as indicated previously. For antimicrobial assays, 5 × 10^5 CFU/mL of bacterial suspensions were incubated with the concentrations of the peptides (ranging from 1 µM to 512 µM) for 24 h at 37 °C. The sterilised broth medium was used as the positive control and the microorganism cultured in the medium only was treated as the negative control. […] The MBC results were defined as the lowest bactericidal concentrations of peptide. The antimicrobial activity of peptides was tested by monitoring the absorbance at 550 nm using an ELISA plate reader (Biolise BioTek EL808, Winooski, VT, USA).
(§4) The activity of peptides in the different environmental conditions including different concentrations of NaCl (50, 100 and 150 mM) and MgCl2 (0.5, 1 and 2 mM), pH (6, 7 and 8), temperature (50 °C, 75 °C and 100 °C) and 10% fetal bovine serum (FBS) solution, was evaluated using the broth microdilution assay as described in the antimicrobial activity assay. For the stability test of peptides in the presence of salt, pH and serum, these conditions were adjusted in the fresh medium that was further used to dilute the bacteria suspension. The peptides were also dissolved in such broth and mixed with the bacteria suspension in the 96 well plate. For the thermal stability test, the peptides were dissolved in the water and incubated at different temperature for 15 min before dosing in the plate. The sterilised broth with corresponding conditions was used as the positive controls, and the bacteria suspension without any treatment was used as the negative controls.

The next series has as its system S. aureus. The class given is cell-based, Staphylococcus aureus. To be noted: 24 h. Here is the method:
as §3, §4

Series [3] relates to P. aeruginosa (ATCC 27853) biofilm. Format: cell-based, Pseudomonas aeruginosa. Conditions: for MBIC50 / MBIC90: ATCC 27853, 24 h. Here is the method:
as §1, §2

The subject of a further series is E. faecalis. The class given is cell-based, Enterococcus faecalis. To be noted: 24 h. Here is the method:
as §3, §4

Values after ≈ are worked out from the molar mass of the structure shown. Read-outs that look alike come from different tables or passages of the source. Where a SMILES comes first, the peptide text is derived from it. A value given as a limit tells only on which side of the number the result lay.

With `CC(C)C[C@H](NC(=O)[C@H](C)NC(=O)[C@H](Cc1c[nH]c2ccccc12)NC(=O)[C@H](CCCCN)NC(=O)[C@H](CC(C)C)NC(=O)[C@@H](N)Cc1ccccc1)C(=O)N[C@@H](CCCCN)C(=O)N[C@@H](Cc1c[nH]c2ccccc12)C(=O)N[C@@H](C)C(=O)N[C@@H](C)C(=O)N[C@@H](CCCCN)C(N)=O` [OSe] (H-FLKWALKWAAK-NH2), in series [1], the “toxicity to larvae without MRSA infection” value was “No noticeable cytotoxicity”. The MBEC50 in series [2] and in series [3] was over 512 µM in each case. The MBEC90 in series [2] and in series [3] was over 512 µM throughout. Further, the figures for the MBIC50 in series [2] and in series [3] were 16 µM and 64 µM, respectively. The MBIC90 was 32 µM in series [2] and 128 µM in series [3]. Besides, the MIC against MRSA (pH 6) came out at 64 µM (≈ 87.1 µg/mL); in the series with MRSA (pH 7) it was 16 µM (≈ 21.8 µg/mL); in the series with MRSA (pH 8) it was 8 µM (≈ 10.9 µg/mL); against S. aureus (pH 6), 16 µM (≈ 21.8 µg/mL); against S. aureus (pH 7), 8 µM (≈ 10.9 µg/mL); against S. aureus (pH 8), 4 µM (≈ 5.44 µg/mL). In addition, the values for the MIC in the series on E. faecalis (pH 6), in the series on E. faecalis (pH 7) and against E. faecalis (pH 8) were 32 µM (≈ 43.5 µg/mL), 64 µM (≈ 87.1 µg/mL) and 32 µM (≈ 43.5 µg/mL), respectively.

As for `CC(C)C[C@H](NC(=O)[C@H](C)NC(=O)[C@H](Cc1c[nH]c2ccccc12)NC(=O)[C@H](CCCCN)NC(=O)[C@@H]1CCCN1C(=O)[C@H](CC(C)C)NC(=O)[C@@H](N)Cc1ccccc1)C(=O)N[C@@H](CCCCN)C(=O)N[C@@H](Cc1c[nH]c2ccccc12)C(=O)N[C@@H](C)C(=O)N[C@@H](C)C(=O)N[C@@H](CCCCN)C(N)=O` [OSf] (H-FLPKWALKWAAK-NH2; N-terminus assumed), the “toxicity to larvae without MRSA infection” value in series [1] was “No noticeable cytotoxicity”. Moreover, the MBEC50 in series [2] and in series [3] was over 512 µM throughout. Further, the MBEC90 in series [2] and in series [3] was over 512 µM each time. The MBIC50 in series [2] is reported as 32 µM; in series [3] it was 64 µM. The MBIC90 worked out at 128 µM in series [2] and 256 µM in series [3]. The MIC against MRSA (pH 6) was determined as 512 µM (≈ 746 µg/mL); against MRSA (pH 7), 16 µM (≈ 23.3 µg/mL); against MRSA (pH 8), 32 µM (≈ 46.7 µg/mL); against S. aureus (pH 6), 128 µM (≈ 187 µg/mL); against S. aureus (pH 7), 8 µM (≈ 11.7 µg/mL); with S. aureus (pH 8), 16 µM (≈ 23.3 µg/mL). The MIC with E. faecalis (pH 6) came out at 512 µM (≈ 746 µg/mL); against E. faecalis (pH 7), 32 µM (≈ 46.7 µg/mL); with E. faecalis (pH 8) it was 128 µM (≈ 187 µg/mL).

With `CC(C)C[C@H](NC(=O)[C@H](C)NC(=O)[C@H](Cc1c[nH]c2ccccc12)NC(=O)[C@H](CCCCN)NC(=O)[C@H](CC(C)C)NC(=O)[C@@H](N)Cc1ccccc1)C(=O)N[C@@H](CCCCN)C(=O)N[C@H](C(=O)N[C@@H](C)C(=O)N[C@@H](C)C(=O)N[C@@H](CCCCN)C(N)=O)C(C)C` [OSd] (H-FLKWALKVAAK-NH2), the “toxicity to larvae without MRSA infection” value in series [1] is “No noticeable cytotoxicity”. In addition, the MBEC50 in series [2] and in series [3] was over 512 µM in each case. Moreover, the MBEC90 in series [2] and in series [3] was over 512 µM each time. For the same molecule, the MBIC50 in series [2] amounted to 64 µM; in series [3], 128 µM. For the same molecule, the MBIC90 in series [2] is 128 µM; in series [3] it was 256 µM. The MIC in the series with MRSA (pH 6) came to 256 µM (≈ 326 µg/mL); against MRSA (pH 7), 128 µM (≈ 163 µg/mL); with MRSA (pH 8), 64 µM (≈ 81.5 µg/mL); against S. aureus (pH 6), 64 µM (≈ 81.5 µg/mL); in the series with S. aureus (pH 7) it was 32 µM (≈ 40.8 µg/mL); against S. aureus (pH 8) it was 32 µM (≈ 40.8 µg/mL). The MIC in the series on E. faecalis (pH 6) is listed as 256 µM (≈ 326 µg/mL); against E. faecalis (pH 7), 128 µM (≈ 163 µg/mL); against E. faecalis (pH 8) it was 128 µM (≈ 163 µg/mL).
